{"source": "patent US20050112573A1", "about": "“Method of detecting toxic substance” (priority 2001, published 2005)", "tested_on": "yeast genes (level of expressed mRNA)", "experiment": "DNA chip analysis of expressed mRNA of yeast genes after 2 h culture with a toxic chemical substance", "type": "cell-based, Saccharomyces cerevisiae S288C", "procedure,_shortened": "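Values are treated-to-control fluorescence ratios from a whole-yeast-genome DNA chip (65° C, over 12 h hybridization) using Cy3/Cy5-labelled cDNA from mRNA. Log-phase S288C cells in YPD at 25° C were exposed 2 h to a toxicant at sublethal, growth-inhibiting concentration.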", "data": [{"substance": "CdCl2 [(2)]", "values": [{"measurement": "The level of expressed mRNA in the presence of chemical substance/", "setting": "yeast gene YKL086W, ratio to control without chemical", "result": 1.1}, {"measurement": "The level of expressed mRNA in the presence of chemical substance/The level of expressed mRNA in the absence of chemical substance", "setting": "yeast gene YKL096W", "result": 0.6}, {"measurement": "The level of expressed mRNA in the presence of chemical substance/", "setting": "yeast gene YKL151C, ratio to control without chemical substance, 2 h culture", "result": 3.1}, {"measurement": "The level of expressed mRNA in the presence of chemical substance/", "setting": "yeast gene YKL153W, ratio to control without chemical substance, 2 h culture", "result": 1.4}, {"measurement": "The level of expressed mRNA in the presence of chemical substance/The level of expressed mRNA in the absence of chemical substance", "setting": "yeast gene YKL165C", "result": 2.0}, {"measurement": "The level of expressed mRNA in the presence of chemical substance/The level of expressed mRNA in the absence of chemical substance", "setting": "yeast gene YKL193C", "result": 0.8}, {"measurement": "The level of expressed mRNA in the presence of chemical substance/", "setting": "yeast gene YKL195W, ratio to control without chemical substance, 2 h culture", "result": 0.5}, {"measurement": "The level of expressed mRNA in the presence of chemical substance/in the absence of chemical substance", "setting": "yeast gene YKR009C", "result": 1.2}, {"measurement": "The level of expressed mRNA in the presence of chemical substance/", "setting": "yeast gene YKR091W, ratio to control without chemical", "result": 2.3}, {"measurement": "The level of expressed mRNA in the presence of chemical substance/", "setting": "yeast gene YLR054C, ratio to control without chemical substance, 2 h culture", "result": 1.5}, {"measurement": "The level of expressed mRNA in the presence of chemical substance/The level of expressed mRNA in the absence of chemical substance", "setting": "yeast gene YLR120C", "result": 1.9}, {"measurement": "The level of expressed mRNA in the presence of chemical substance/The level of expressed mRNA in the absence of chemical substance", "setting": "yeast gene YLR136C", "result": 9.0}, {"measurement": "The level of expressed mRNA in the presence of chemical substance/", "setting": "yeast gene YLR149C, ratio to control without chemical substance, 2 h culture", "result": 1.9}, {"measurement": "The level of expressed mRNA in the presence of chemical substance/", "setting": "yeast gene YLR152C, ratio to control without chemical substance, 2 h culture", "result": 1.3}, {"measurement": "The level of expressed mRNA in the presence of chemical substance/The level of expressed mRNA in the absence of chemical substance", "setting": "yeast gene YLR178C", "result": 6.9}, {"measurement": "The level of expressed mRNA in the presence of chemical substance/", "setting": "yeast gene YLR194C, ratio to control without chemical", "result": 2.2}, {"measurement": "The level of expressed mRNA in the presence of chemical substance/The level of expressed mRNA in the absence of chemical substance", "setting": "yeast gene YLR250W", "result": 1.0}, {"measurement": "The level of expressed mRNA in the presence of chemical substance/", "setting": "yeast gene YLR324W, ratio to control without chemical substance, 2 h culture", "result": 1.2}, {"measurement": "The level of expressed mRNA in the presence of chemical substance/The level of expressed mRNA in the absence of chemical substance", "setting": "yeast gene YLR327C", "result": 3.3}, {"measurement": "The level of expressed mRNA in the presence of chemical substance/", "setting": "yeast gene YLR350W, ratio to control without chemical substance, 2 h culture", "result": 1.9}, {"measurement": "The level of expressed mRNA in the presence of chemical substance/in the absence of chemical substance", "setting": "yeast gene YLR351C", "result": 1.4}, {"measurement": "The level of expressed mRNA in the presence of chemical substance/The level of expressed mRNA in the absence of chemical substance", "setting": "yeast gene YLR356W", "result": 2.9}, {"measurement": "The level of expressed mRNA in the presence of chemical substance/The level of expressed mRNA in the absence of chemical substance", "setting": "yeast gene YLR362W", "result": 1.2}, {"measurement": "The level of expressed mRNA in the presence of chemical substance/in the absence of chemical substance", "setting": "yeast gene YLR375W", "result": 1.5}, {"measurement": "The level of expressed mRNA in the presence of chemical substance/", "setting": "yeast gene YLR387C, ratio to control without chemical substance, 2 h culture", "result": 1.6}, {"measurement": "The level of expressed mRNA in the presence of chemical substance/The level of expressed mRNA in the absence of chemical substance", "setting": "yeast gene YLR391W", "result": 0.7}, {"measurement": "The level of expressed mRNA in the presence of chemical substance/The level of expressed mRNA in the absence of chemical substance", "setting": "yeast gene YLR429W", "result": 1.0}, {"measurement": "The level of expressed mRNA in the presence of chemical substance/", "setting": "yeast gene YLR460C, ratio to control without chemical substance, 2 h culture", "result": 2.1}, {"measurement": "The level of expressed mRNA in the presence of chemical substance/", "setting": "yeast gene YML117W, ratio to control without chemical substance, 2 h culture", "result": 2.2}, {"measurement": "The level of expressed mRNA in the presence of chemical substance/The level of expressed mRNA in the absence of chemical substance", "setting": "yeast gene YMR004W", "result": 0.9}, {"measurement": "The level of expressed mRNA in the presence of chemical substance/", "setting": "yeast gene YMR009W, ratio to control without chemical substance, 2 h culture", "result": 1.9}, {"measurement": "The level of expressed mRNA in the presence of chemical substance/", "setting": "yeast gene YMR067C, ratio to control without chemical substance, 2 h culture", "result": 0.9}, {"measurement": "The level of expressed mRNA in the presence of chemical substance/", "setting": "yeast gene YMR090W, ratio to control without chemical substance, 2 h culture", "result": 9.5}, {"measurement": "The level of expressed mRNA in the presence of chemical substance/The level of expressed mRNA in the absence of chemical substance", "setting": "yeast gene YMR094W", "result": 0.5}, {"measurement": "The level of expressed mRNA in the presence of chemical substance/", "setting": "yeast gene YMR095C, ratio to control without chemical", "result": 2.0}, {"measurement": "The level of expressed mRNA in the presence of chemical substance/", "setting": "yeast gene YMR097C, ratio to control without chemical substance, 2 h culture", "result": 1.0}, {"measurement": "The level of expressed mRNA in the presence of chemical substance/", "setting": "yeast gene YMR102C, ratio to control without chemical substance, 2 h culture", "result": 2.9}, {"measurement": "The level of expressed mRNA in the presence of chemical substance/The level of expressed mRNA in the absence of chemical substance", "setting": "yeast gene YMR104C", "result": 14.3}, {"measurement": "The level of expressed mRNA in the presence of chemical substance/", "setting": "yeast gene YMR107W, ratio to control without chemical substance, 2 h culture", "result": 3.9}, {"measurement": "The level of expressed mRNA in the presence of chemical substance/", "setting": "yeast gene YMR180C, ratio to control without chemical substance, 2 h culture", "result": 0.9}, {"measurement": "The level of expressed mRNA in the presence of chemical substance/", "setting": "yeast gene YMR184W, ratio to control without chemical substance, 2 h culture", "result": 5.4}, {"measurement": "The level of expressed mRNA in the presence of chemical substance/", "setting": "yeast gene YMR191W, ratio to control without chemical substance, 2 h culture", "result": 2.4}, {"measurement": "The level of expressed mRNA in the presence of chemical substance/The level of expressed mRNA in the absence of chemical substance", "setting": "yeast gene YMR219W", "result": 1.1}, {"measurement": "The level of expressed mRNA in the presence of chemical substance/The level of expressed mRNA in the absence of chemical substance", "setting": "yeast gene YMR226C", "result": 1.8}, {"measurement": "The level of expressed mRNA in the presence of chemical substance/in the absence of chemical substance", "setting": "yeast gene YMR267W", "result": 1.8}, {"measurement": "The level of expressed mRNA in the presence of chemical substance/The level of expressed mRNA in the absence of chemical substance", "setting": "yeast gene YMR275C", "result": 0.7}, {"measurement": "The level of expressed mRNA in the presence of chemical substance/The level of expressed mRNA in the absence of chemical substance", "setting": "yeast gene YMR276W", "result": 1.4}, {"measurement": "The level of expressed mRNA in the presence of chemical substance/in the absence of chemical substance", "setting": "yeast gene YMR278W", "result": 1.7}, {"measurement": "The level of expressed mRNA in the presence of chemical substance/in the absence of chemical substance", "setting": "yeast gene YMR293C", "result": 1.5}, {"measurement": "The level of expressed mRNA in the presence of chemical substance/", "setting": "yeast gene YMR295C, ratio to control without chemical substance, 2 h culture", "result": 1.0}, {"measurement": "The level of expressed mRNA in the presence of chemical substance/The level of expressed mRNA in the absence of chemical substance", "setting": "yeast gene YMR314W", "result": 1.2}, {"measurement": "The level of expressed mRNA in the presence of chemical substance/", "setting": "yeast gene YMR316W, ratio to control without chemical substance, 2 h culture", "result": 2.9}, {"measurement": "The level of expressed mRNA in the presence of chemical substance/The level of expressed mRNA in the absence of chemical substance", "setting": "yeast gene YNL006W", "result": 2.1}, {"measurement": "The level of expressed mRNA in the presence of chemical substance/The level of expressed mRNA in the absence of chemical substance", "setting": "yeast gene YNL007C", "result": 2.4}, {"measurement": "The level of expressed mRNA in the presence of chemical substance/", "setting": "yeast gene YNL044W, ratio to control without chemical substance, 2 h culture", "result": 0.9}]}]}
